Test results reported in ChEMBL document CHEMBL1667746, “Synthesis, antimicrobial activity and structure-activity relationship study of N,N-dibenzyl-cyclohexane-1,2-diamine derivatives” (Eur J Med Chem, 2011).
In brackets after ≈: the same amount, converted by molar mass. Activity calls are given as the source filed them. No cut-off for these calls is given here.

Experiments:
Escherichia coli = assay: Antibacterial activity against Escherichia coli after 24 hrs micro dilution assay; format: functional
Pseudomonas aeruginosa = assay: Antibacterial activity against Pseudomonas aeruginosa after 24 hrs micro dilution assay; format: functional
Staphylococcus aureus = assay: Antibacterial activity against Staphylococcus aureus after 24 hrs micro dilution assay; format: functional
[1] = system: Staphylococcus epidermidis; assay: Antibacterial activity against Staphylococcus epidermidis after 24 hrs micro dilution assay; format: functional
Candida albicans = assay: Antifungal activity against Candida albicans MTCC 3017 after 24 hrs micro dilution assay; format: functional
Nakaseomyces glabratus = assay: Antifungal activity against Candida glabrata MTCC 3019 after 24 hrs micro dilution assay; format: functional
Geotrichum candidum = assay: Antifungal activity against Geotrichum candidum NCIM 980 after 24 hrs micro dilution assay; format: functional
[2] = Toxicity in human RBC assessed as hemolysis at 1024 ug/ml; format: cell-based, Erythrocyte; conditions: for Activity: erythrocyte; for hemolysis at 1024 ug/ml: red blood cells, read-out: Activity
[3] = Escherichia coli, 24 h, read-out: MIC
[4] = Pseudomonas aeruginosa, 24 h, read-out: MIC
[5] = Staphylococcus aureus, 24 h, read-out: MIC
[6] = Staphylococcus epidermidis, 24 h, read-out: MIC

Compound | MIC (Escherichia coli; [3]) | MIC (Pseudomonas aeruginosa; [4]) | MIC (Staphylococcus aureus; [5]) | MIC [1, 6] | MIC (Candida albicans; MTCC 3017, 24 h) | MIC (Nakaseomyces glabratus; MTCC 3019, 24 h) | MIC (Geotrichum candidum; NCIM 980, 24 h) | Activity [2] | hemolysis at 1024 ug/ml [2] | MIC (Candida albicans) | MIC (Pseudomonas aeruginosa) | MIC (Staphylococcus aureus) | MIC (Nakaseomyces glabratus) | MIC (Escherichia coli) | MIC [1] | MIC (Geotrichum candidum)
Brc1cccc(CNC2CCCCC2NCc2cccc(Br)c2)c1.Cl (configuration not stated) | 0.065 mg/L | 0.25 mg/L | 0.008 mg/L | 0.065 mg/L | 0.125 mg/L | 0.25 mg/L | 0.065 mg/L | Non-toxic |  |  |  |  |  |  |  | 
Cl.Clc1ccc(CN[C@H]2CCCC[C@@H]2NCc2ccc(Cl)cc2)cc1 | 0.032 mg/L | 0.032 mg/L | 0.032 mg/L | 0.032 mg/L |  |  |  |  | 4.8% |  |  |  |  |  |  | 
Cl.FC(F)(F)c1cccc(CN[C@H]2CCCC[C@@H]2NCc2cccc(C(F)(F)F)c2)c1 | 0.032 mg/L | 0.008 mg/L | 0.016 mg/L | 0.065 mg/L |  | 0.125 mg/L | 0.125 mg/L |  | 3.7% | inactive |  |  |  |  |  | 
Cl.Clc1cccc(CNC2CCCCC2NCc2cccc(Cl)c2)c1 (configuration not stated) | 0.032 mg/L | 0.008 mg/L | 0.032 mg/L | 0.032 mg/L | 0.125 mg/L | 0.125 mg/L | 0.065 mg/L |  | 9.68% |  |  |  |  |  |  | 
Cl.FC(F)(F)c1cccc(CNC2CCCCC2NCc2cccc(C(F)(F)F)c2)c1 (configuration not stated) | 0.065 mg/L | 0.25 mg/L | 0.016 mg/L | 0.032 mg/L | 0.125 mg/L | 0.25 mg/L | 0.125 mg/L | Non-toxic |  |  |  |  |  |  |  | 
Brc1cccc(CN[C@H]2CCCC[C@@H]2NCc2cccc(Br)c2)c1.Cl | 0.032 mg/L |  | 0.008 mg/L | 0.032 mg/L | 0.125 mg/L | 0.065 mg/L | 0.065 mg/L | Non-toxic |  |  | 0.008 mg/L |  |  |  |  | 
Cl.Clc1cccc(CN[C@H]2CCCC[C@@H]2NCc2cccc(Cl)c2)c1 (racemic) | 0.032 mg/L | 0.065 mg/L |  | 0.032 mg/L | 0.125 mg/L |  | 0.032 mg/L |  |  |  |  | inactive | inactive |  |  | 
Cl.Fc1cccc(CNC2CCCCC2NCc2cccc(F)c2)c1 (configuration not stated) | 0.25 mg/L | 0.25 mg/L |  | 0.25 mg/L |  |  | 0.5 mg/L | Non-toxic |  | inactive |  | inactive | inactive |  |  | 
Cl.O=[N+]([O-])c1ccc(CNC2CCCCC2NCc2ccc([N+](=O)[O-])cc2)cc1 (configuration not stated) |  | 0.125 mg/L |  |  |  |  | 0.5 mg/L | Non-toxic |  | inactive |  | inactive | inactive | inactive | inactive | 
Cl.FC(F)(F)c1ccccc1CNC1CCCCC1NCc1ccccc1C(F)(F)F (configuration not stated) | 0.25 mg/L | 0.032 mg/L | 0.065 mg/L | 0.065 mg/L | 0.5 mg/L |  | 0.5 mg/L | Non-toxic |  |  |  |  | inactive |  |  | 
CN(C)[C@@H]1C(O)=C(C(N)=O)C(=O)[C@@]2(O)C(O)=C3C(=O)c4c(O)cccc4[C@@](C)(O)[C@H]3C[C@@H]12 [TETRACYCLINE] | 0.001 mg/L (≈ 0.00225 µM) |  | 0.001 mg/L (≈ 0.00225 µM) | 0.002 mg/L (≈ 0.0045 µM) |  |  |  |  |  |  |  |  |  |  |  | 
CC(C)c1ccc(CNC2CCCCC2NCc2ccc(C(C)C)cc2)cc1.Cl (configuration not stated) | 0.004 mg/L | 0.0005 mg/L | 0.008 mg/L | 0.008 mg/L | 0.008 mg/L | 0.016 mg/L |  |  | 81.8% |  |  |  |  |  |  | inactive
Cl.FC(F)(F)c1ccc(CN[C@H]2CCCC[C@@H]2NCc2ccc(C(F)(F)F)cc2)cc1 | 0.032 mg/L | 0.008 mg/L | 0.016 mg/L | 0.032 mg/L | 0.125 mg/L | 0.065 mg/L | 0.065 mg/L | Non-toxic |  |  |  |  |  |  |  | 
Clc1ccccc1CNC1CCCCC1NCc1ccccc1Cl (configuration not stated) |  |  |  |  |  |  |  |  | 9.83% |  | inactive | inactive |  | inactive | inactive | 
Cc1ccc(CNC2CCCCC2NCc2ccc(C)cc2)cc1.Cl (configuration not stated) | 0.25 mg/L | 0.125 mg/L | 0.125 mg/L | 0.25 mg/L |  |  | 0.25 mg/L |  | 19.2% | inactive |  |  | inactive |  |  | 
COc1ccc(CNC2CCCCC2NCc2ccc(OC)cc2)cc1.Cl (configuration not stated) |  |  |  |  |  |  |  | Non-toxic |  |  | inactive | inactive |  | inactive | inactive | 
C[C@@H]1[C@H](O)[C@@H](C)/C=C/C=C/C=C/C=C/C=C/C=C/C=C/[C@H](O[C@@H]2O[C@H](C)[C@@H](O)[C@H](N)[C@@H]2O)C[C@@H]2O[C@](O)(C[C@@H](O)C[C@@H](O)[C@H](O)CC[C@@H](O)C[C@@H](O)CC(=O)O[C@H]1C)C[C@H](O)[C@H]2C(=O)O [AMPHOTERICIN B] |  |  |  |  | 0.3 mg/L (≈ 0.325 µM) | 50 mg/L (≈ 54.1 µM) | 6.25 mg/L (≈ 6.76 µM) |  |  |  |  |  |  |  |  | 
Cl.FC(F)(F)c1ccc(C(F)(F)F)c(CNC2CCCCC2NCc2cc(C(F)(F)F)ccc2C(F)(F)F)c1 (configuration not stated) |  |  |  |  |  |  |  | Non-toxic |  |  | inactive | inactive |  | inactive | inactive | 
Cl.FC(F)(F)c1ccc(CNC2CCCCC2NCc2ccc(C(F)(F)F)cc2C(F)(F)F)c(C(F)(F)F)c1 (configuration not stated) |  |  |  |  |  |  |  | Non-toxic |  |  | inactive | inactive |  | inactive | inactive | 
Cl.Clc1ccc(CNC2CCCCC2NCc2ccc(Cl)cc2Cl)c(Cl)c1 (racemic) | 0.032 mg/L | 0.016 mg/L | 0.016 mg/L | 0.032 mg/L |  |  |  |  |  |  |  |  |  |  |  | 
c1ccc(CNC2CCCCC2NCc2ccccc2)cc1 (configuration not stated) |  |  |  |  |  |  |  |  |  |  | inactive | inactive |  | inactive | inactive | 
Brc1ccc(CN[C@H]2CCCC[C@@H]2NCc2ccc(Br)cc2)cc1.Cl | 0.008 mg/L | 0.008 mg/L | 0.002 mg/L | 0.016 mg/L | 0.065 mg/L | 0.032 mg/L | 0.032 mg/L | Non-toxic |  |  |  |  |  |  |  | 
Brc1cccc(CN[C@H]2CCCC[C@@H]2NCc2cccc(Br)c2)c1.Cl (racemic) |  |  |  |  |  |  |  |  |  |  | 0.032 mg/L | 0.008 mg/L |  | 0.016 mg/L | 0.032 mg/L | 
Cc1cccc(CNC2CCCCC2NCc2cccc(C)c2)c1.Cl (configuration not stated) | 0.125 mg/L | 0.065 mg/L | 0.032 mg/L | 0.25 mg/L |  |  | 0.25 mg/L |  | 4.78% | inactive |  |  | inactive |  |  | 
Brc1ccccc1CNC1CCCCC1NCc1ccccc1Br.Cl (configuration not stated) |  |  |  |  |  |  |  | Non-toxic |  |  | inactive | inactive |  | inactive | inactive | 
Cc1ccccc1CNC1CCCCC1NCc1ccccc1C.Cl (configuration not stated) | 0.125 mg/L | 0.125 mg/L | 0.25 mg/L | 0.25 mg/L |  |  | 0.25 mg/L | Non-toxic |  | inactive |  |  | inactive |  |  | 
Cl.O=[N+]([O-])c1cccc(CNC2CCCCC2NCc2cccc([N+](=O)[O-])c2)c1 (configuration not stated) | 0.5 mg/L | 0.25 mg/L | 0.5 mg/L | 1 mg/L |  |  |  | Non-toxic |  |  |  |  |  |  |  | 
Cl.O=[N+]([O-])c1ccccc1CNC1CCCCC1NCc1ccccc1[N+](=O)[O-] (configuration not stated) |  |  |  |  |  |  |  | Non-toxic |  |  | inactive | inactive |  | inactive | inactive | 
